Source: patent US10093713B2, “GIP-GLP-1 dual agonist compounds and methods” (priority 2013, dated 2018)
*1 amine or outer side, *2 acyl side, *3 side chain or, on linkers, in order; H or OH if unused. Where a SMILES comes first, the peptide text is derived from it. Side-chain parts run from the residue outwards. [ ]: non-standard residue; d: D form. The star is where a group is joined. C20 diacid = O=C(O)CCCCCCCCCCCCCCCCCCC(=O)*; γGlu = O=C(O)[C@H](CCC(=O)[*:2])N[*:1]; AEEA = NCCOCCOCC(=O)O; Aib = CC(C)(N)C(=O)O

Columns and labels:
human GIP R = molecular target: T1, human GIP R (Homo sapiens, UniProt P48546); test: Human GIP receptor (GIP R) activity assay, cAMP induction (AlphaScreen) in HEK293 cells; assay type: cell-based; conditions: Table 3; most comprehensive data; read-out: hGIP-R cAMP EC50 average value
T1 construct: expressed in transfected cells
T1 sequence (P48546 22-466): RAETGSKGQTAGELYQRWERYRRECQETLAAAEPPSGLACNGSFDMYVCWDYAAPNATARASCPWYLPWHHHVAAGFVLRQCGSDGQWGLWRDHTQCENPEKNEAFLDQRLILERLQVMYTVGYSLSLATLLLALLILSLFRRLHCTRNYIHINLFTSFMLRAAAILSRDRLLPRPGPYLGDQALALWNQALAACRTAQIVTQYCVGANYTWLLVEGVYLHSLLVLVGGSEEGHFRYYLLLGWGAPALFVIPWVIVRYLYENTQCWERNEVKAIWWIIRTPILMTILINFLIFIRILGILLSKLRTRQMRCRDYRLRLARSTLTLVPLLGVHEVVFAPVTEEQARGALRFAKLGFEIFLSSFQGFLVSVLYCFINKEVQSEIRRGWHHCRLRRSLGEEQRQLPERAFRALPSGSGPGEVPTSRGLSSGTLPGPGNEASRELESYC
Summary of the method: (§1)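 Stable HEK293 clones expressing human GIP R or GLP-1 R, seeded 1 day before; cells washed in Tyrode's buffer (10 mM HEPES, pH 7.4), stimulated, then lysed. cAMP measured by AlphaScreen bead competition (1 h, room temperature, dark). EC50 = concentration giving half-maximal cAMP elevation, from curves of absolute cAMP (nM) vs log concentration.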

human GLP-1 R = molecular target: T2, human GLP-1 R (Homo sapiens, UniProt P43220); test: Human GLP-1 receptor (GLP-1 R) activity assay, cAMP induction (AlphaScreen) in HEK293 cells; assay type: cell-based; conditions: Table 3; most comprehensive data; read-out: hGLP-1-R cAMP EC50 average value
T2 construct: expressed in transfected cells
T2 sequence (P43220 24-463): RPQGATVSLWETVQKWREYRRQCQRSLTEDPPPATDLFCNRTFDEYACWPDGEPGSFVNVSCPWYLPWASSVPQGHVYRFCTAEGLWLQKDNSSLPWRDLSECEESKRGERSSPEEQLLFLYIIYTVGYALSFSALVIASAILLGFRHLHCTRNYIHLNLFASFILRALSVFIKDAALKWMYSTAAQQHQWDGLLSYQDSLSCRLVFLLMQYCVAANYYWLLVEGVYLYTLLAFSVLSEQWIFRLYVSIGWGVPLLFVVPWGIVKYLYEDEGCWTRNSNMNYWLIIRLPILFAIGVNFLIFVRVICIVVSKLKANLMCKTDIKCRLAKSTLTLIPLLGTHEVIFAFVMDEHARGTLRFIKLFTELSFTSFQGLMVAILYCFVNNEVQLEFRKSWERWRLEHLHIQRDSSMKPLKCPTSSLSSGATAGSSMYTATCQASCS
Summary of the method: as §1

SMILES: CC[C@H](C)[C@H](NC(=O)[C@H](CO)NC(=O)[C@H](Cc1ccc(O)cc1)NC(=O)[C@H](CC(=O)O)NC(=O)[C@H](CO)NC(=O)[C@@H](NC(=O)[C@H](Cc1ccccc1)NC(=O)[C@@H](NC(=O)CNC(=O)[C@H](CCC(=O)O)NC(=O)C(C)(C)NC(=O)[C@@H](N)Cc1ccc(O)cc1)[C@@H](C)O)[C@@H](C)O)C(=O)N[C@@H](C)C(=O)N[C@@H](CC(C)C)C(=O)N[C@@H](CC(=O)O)C(=O)N[C@@H](CCCCN)C(=O)N[C@@H](CCCCNC(=O)COCCOCCNC(=O)COCCOCCNC(=O)CC[C@H](NC(=O)CCCCCCCCCCCCCCCCCCC(=O)O)C(=O)O)C(=O)N[C@@H](C)C(=O)N[C@@H](C)C(=O)N[C@@H](CCCCN)C(=O)N[C@@H](CCC(=O)O)C(=O)N[C@@H](Cc1ccccc1)C(=O)N[C@H](C(=O)N[C@@H](CCC(=O)O)C(=O)N[C@@H](Cc1c[nH]c2ccccc12)C(=O)N[C@@H](CC(C)C)C(=O)N[C@@H](CC(C)C)C(=O)N[C@@H](CO)C(=O)N[C@@H](C)C(=O)NCC(=O)N1CCC[C@H]1C(=O)N[C@@H](CO)C(=O)N[C@@H](CO)C(=O)NCC(=O)N[C@@H](C)C(=O)N1CCC[C@H]1C(=O)N1CCC[C@H]1C(=O)N1CCC[C@H]1C(=O)N[C@@H](CO)C(N)=O)C(C)C [Compound 41] (H-Y[Aib]EGTFTSDYSIALDKK([AEEA-AEEA-γGlu-C20 diacid])AAKEFVEWLLSAGPSSGAPPPS-NH2)
- EC50 (human GIP R): 0.015 nM
- EC50 (human GLP-1 R): 0.038 nM

SMILES: CC[C@H](C)[C@H](NC(=O)[C@H](CO)NC(=O)[C@H](Cc1ccc(O)cc1)NC(=O)[C@H](CC(=O)O)NC(=O)[C@H](CO)NC(=O)[C@@H](NC(=O)[C@H](Cc1ccccc1)NC(=O)[C@@H](NC(=O)CNC(=O)[C@H](CCC(=O)O)NC(=O)C(C)(C)NC(=O)[C@@H](N)Cc1ccc(O)cc1)[C@@H](C)O)[C@@H](C)O)C(=O)N[C@@H](C)C(=O)N[C@@H](CC(C)C)C(=O)N[C@@H](CC(=O)O)C(=O)N[C@@H](CCCCN)C(=O)N[C@@H](CCCCNC(=O)COCCOCCNC(=O)COCCOCCNC(=O)CC[C@H](NC(=O)CCCCCCCCCCCCCCCCCCC(=O)O)C(=O)O)C(=O)N[C@@H](C)C(=O)N[C@@H](CCC(N)=O)C(=O)N[C@@H](CCCNC(=N)N)C(=O)N[C@@H](C)C(=O)N[C@@H](Cc1ccccc1)C(=O)N[C@H](C(=O)N[C@@H](CCC(=O)O)C(=O)N[C@@H](Cc1c[nH]c2ccccc12)C(=O)N[C@@H](CC(C)C)C(=O)N[C@@H](CC(C)C)C(=O)N[C@@H](C)C(=O)N[C@@H](CCC(N)=O)C(=O)NCC(=O)N1CCC[C@H]1C(=O)N[C@@H](CO)C(=O)N[C@@H](CO)C(=O)NCC(=O)N[C@@H](C)C(=O)N1CCC[C@H]1C(=O)N1CCC[C@H]1C(=O)N1CCC[C@H]1C(=O)N[C@@H](CO)C(N)=O)C(C)C [Compound 42] (H-Y[Aib]EGTFTSDYSIALDKK([AEEA-AEEA-γGlu-C20 diacid])AQRAFVEWLLAQGPSSGAPPPS-NH2)
- EC50 (human GIP R): 0.009 nM
- EC50 (human GLP-1 R): 0.017 nM

SMILES: CC[C@H](C)[C@H](NC(=O)[C@H](CO)NC(=O)[C@H](Cc1ccc(O)cc1)NC(=O)[C@H](CC(=O)O)NC(=O)[C@H](CO)NC(=O)[C@@H](NC(=O)[C@H](Cc1ccccc1)NC(=O)[C@@H](NC(=O)CNC(=O)[C@H](CCC(=O)O)NC(=O)C(C)(C)NC(=O)[C@@H](N)Cc1ccc(O)cc1)[C@@H](C)O)[C@@H](C)O)C(=O)N[C@@H](C)C(=O)N[C@@H](CC(C)C)C(=O)N[C@@H](CC(=O)O)C(=O)N[C@@H](CCC(=O)O)C(=O)N[C@@H](CCCCNC(=O)COCCOCCNC(=O)COCCOCCNC(=O)CC[C@H](NC(=O)CCCCCCCCCCCCCCCCCCC(=O)O)C(=O)O)C(=O)N[C@@H](C)C(=O)N[C@@H](CCC(N)=O)C(=O)N[C@@H](CCCNC(=N)N)C(=O)N[C@@H](C)C(=O)N[C@@H](Cc1ccccc1)C(=O)N[C@H](C(=O)N[C@@H](CCC(=O)O)C(=O)N[C@@H](Cc1c[nH]c2ccccc12)C(=O)N[C@@H](CC(C)C)C(=O)N[C@@H](CC(C)C)C(=O)N[C@@H](C)C(=O)N[C@@H](CCC(N)=O)C(=O)NCC(=O)N1CCC[C@H]1C(=O)N[C@@H](CO)C(=O)N[C@@H](CO)C(=O)NCC(=O)N[C@@H](C)C(=O)N1CCC[C@H]1C(=O)N1CCC[C@H]1C(=O)N1CCC[C@H]1C(=O)N[C@@H](CO)C(N)=O)C(C)C [Compound 43] (H-Y[Aib]EGTFTSDYSIALDEK([AEEA-AEEA-γGlu-C20 diacid])AQRAFVEWLLAQGPSSGAPPPS-NH2)
- EC50 (human GIP R): 0.005 nM
- EC50 (human GLP-1 R): 0.016 nM

SMILES: CC[C@H](C)[C@H](NC(=O)[C@H](CO)NC(=O)[C@H](Cc1ccc(O)cc1)NC(=O)[C@H](CC(=O)O)NC(=O)[C@H](CO)NC(=O)[C@@H](NC(=O)[C@H](Cc1ccccc1)NC(=O)[C@@H](NC(=O)CNC(=O)[C@H](CCC(=O)O)NC(=O)C(C)(C)NC(=O)[C@@H](N)Cc1ccc(O)cc1)[C@@H](C)O)[C@@H](C)O)C(=O)N[C@@H](C)C(=O)N[C@@H](CC(C)C)C(=O)N[C@@H](CC(=O)O)C(=O)N[C@@H](CCC(=O)O)C(=O)N[C@@H](CCCCNC(=O)COCCOCCNC(=O)COCCOCCNC(=O)CC[C@H](NC(=O)CCCCCCCCCCCCCCCCCCC(=O)O)C(=O)O)C(=O)N[C@@H](C)C(=O)N[C@@H](CCC(N)=O)C(=O)N[C@@H](CCCNC(=N)N)C(=O)N[C@@H](C)C(=O)N[C@@H](Cc1ccccc1)C(=O)N[C@H](C(=O)N[C@@H](CCC(=O)O)C(=O)N[C@@H](Cc1c[nH]c2ccccc12)C(=O)N[C@@H](CC(C)C)C(=O)N[C@@H](CC(C)C)C(=O)N[C@@H](C)C(=O)N[C@@H](C)C(=O)NCC(=O)N1CCC[C@H]1C(=O)N[C@@H](CO)C(=O)N[C@@H](CO)C(=O)NCC(=O)N[C@@H](C)C(=O)N1CCC[C@H]1C(=O)N1CCC[C@H]1C(=O)N1CCC[C@H]1C(=O)N[C@@H](CO)C(N)=O)C(C)C [Compound 44] (H-Y[Aib]EGTFTSDYSIALDEK([AEEA-AEEA-γGlu-C20 diacid])AQRAFVEWLLAAGPSSGAPPPS-NH2)
- EC50 (human GIP R): 0.007 nM
- EC50 (human GLP-1 R): 0.015 nM

SMILES: CC[C@H](C)[C@H](NC(=O)[C@H](CO)NC(=O)[C@H](Cc1ccc(O)cc1)NC(=O)[C@H](CC(=O)O)NC(=O)[C@H](CO)NC(=O)[C@@H](NC(=O)[C@H](Cc1ccccc1)NC(=O)[C@@H](NC(=O)CNC(=O)[C@H](CCC(=O)O)NC(=O)C(C)(C)NC(=O)[C@@H](N)Cc1ccc(O)cc1)[C@@H](C)O)[C@@H](C)O)C(=O)N[C@@H](C)C(=O)N[C@@H](CC(C)C)C(=O)N[C@@H](CC(=O)O)C(=O)N[C@@H](CCCCN)C(=O)N[C@@H](CCCCNC(=O)COCCOCCNC(=O)COCCOCCNC(=O)CC[C@H](NC(=O)CCCCCCCCCCCCCCCCCCC(=O)O)C(=O)O)C(=O)N[C@@H](C)C(=O)N[C@@H](CCC(N)=O)C(=O)N[C@@H](CCCCN)C(=O)N[C@@H](C)C(=O)N[C@@H](Cc1ccccc1)C(=O)N[C@H](C(=O)N[C@@H](CCC(=O)O)C(=O)N[C@@H](Cc1c[nH]c2ccccc12)C(=O)N[C@@H](CC(C)C)C(=O)N[C@@H](CC(C)C)C(=O)N[C@@H](C)C(=O)N[C@@H](C)C(=O)NCC(=O)N1CCC[C@H]1C(=O)N[C@@H](CO)C(=O)N[C@@H](CO)C(=O)NCC(=O)N[C@@H](C)C(=O)N1CCC[C@H]1C(=O)N1CCC[C@H]1C(=O)N1CCC[C@H]1C(=O)N[C@@H](CO)C(N)=O)C(C)C [Compound 45] (H-Y[Aib]EGTFTSDYSIALDKK([AEEA-AEEA-γGlu-C20 diacid])AQKAFVEWLLAAGPSSGAPPPS-NH2)
- EC50 (human GIP R): 0.005 nM
- EC50 (human GLP-1 R): 0.024 nM

SMILES: CC[C@H](C)[C@H](NC(=O)[C@H](CO)NC(=O)[C@H](Cc1ccc(O)cc1)NC(=O)[C@H](CC(=O)O)NC(=O)[C@H](CO)NC(=O)[C@@H](NC(=O)[C@H](Cc1ccccc1)NC(=O)[C@@H](NC(=O)CNC(=O)[C@H](CCC(=O)O)NC(=O)C(C)(C)NC(=O)[C@@H](N)Cc1ccc(O)cc1)[C@@H](C)O)[C@@H](C)O)C(=O)N[C@@H](Cc1ccc(O)cc1)C(=O)N[C@@H](CC(C)C)C(=O)N[C@@H](CC(=O)O)C(=O)N[C@@H](CCCCN)C(=O)N[C@@H](CCCCNC(=O)COCCOCCNC(=O)COCCOCCNC(=O)CC[C@H](NC(=O)CCCCCCCCCCCCCCCCCCC(=O)O)C(=O)O)C(=O)N[C@@H](C)C(=O)N[C@@H](CCC(N)=O)C(=O)N[C@@H](CCCNC(=N)N)C(=O)N[C@@H](CCC(=O)O)C(=O)N[C@@H](Cc1ccccc1)C(=O)N[C@H](C(=O)N[C@@H](CCC(=O)O)C(=O)N[C@@H](Cc1c[nH]c2ccccc12)C(=O)N[C@@H](CC(C)C)C(=O)N[C@@H](CC(C)C)C(=O)N[C@@H](C)C(=O)N[C@@H](CCC(N)=O)C(=O)NCC(=O)N1CCC[C@H]1C(=O)N[C@@H](CO)C(=O)N[C@@H](CO)C(=O)NCC(=O)N[C@@H](C)C(=O)N1CCC[C@H]1C(=O)N1CCC[C@H]1C(=O)N1CCC[C@H]1C(=O)N[C@@H](CO)C(N)=O)C(C)C [Compound 46] (H-Y[Aib]EGTFTSDYSIYLDKK([AEEA-AEEA-γGlu-C20 diacid])AQREFVEWLLAQGPSSGAPPPS-NH2)
- EC50 (human GIP R): 0.006 nM
- EC50 (human GLP-1 R): 0.01 nM
